Experimental data published in ChEMBL document CHEMBL1201862, “PubChem BioAssay data set” (2004).
The source made the active and inactive calls.

How the values were obtained:
Cytochrome P450 2C9 = Cytochrome P450 2C9 (Homo sapiens, UniProt P11712); conditions: Potency
[1] = target: T1, Alkaline phosphatase, tissue-nonspecific isozyme (Homo sapiens, UniProt P05186); assay: human TNAP enzyme inhibitors, SAR follow-up, biochemical, luminescent, dose response (AID 1056)
T1 sequence (P05186 whole entry): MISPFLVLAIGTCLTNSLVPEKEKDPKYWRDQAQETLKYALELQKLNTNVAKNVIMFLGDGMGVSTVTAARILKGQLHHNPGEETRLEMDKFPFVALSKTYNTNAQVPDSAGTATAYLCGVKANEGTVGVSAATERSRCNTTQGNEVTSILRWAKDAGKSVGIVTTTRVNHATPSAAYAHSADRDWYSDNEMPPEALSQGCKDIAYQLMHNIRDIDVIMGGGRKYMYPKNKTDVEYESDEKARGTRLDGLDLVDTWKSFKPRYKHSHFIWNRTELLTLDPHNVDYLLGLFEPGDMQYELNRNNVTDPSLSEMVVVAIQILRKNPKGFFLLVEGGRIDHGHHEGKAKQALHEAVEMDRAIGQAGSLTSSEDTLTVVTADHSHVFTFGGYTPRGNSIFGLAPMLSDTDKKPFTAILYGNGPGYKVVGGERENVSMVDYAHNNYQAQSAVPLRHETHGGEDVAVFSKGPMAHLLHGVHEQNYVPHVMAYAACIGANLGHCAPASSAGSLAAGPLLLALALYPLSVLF

[2] = target: Glyceraldehyde-3-phosphate dehydrogenase (Homo sapiens, UniProt P04406)
Sequence of Glyceraldehyde-3-phosphate dehydrogenase (P04406 whole entry): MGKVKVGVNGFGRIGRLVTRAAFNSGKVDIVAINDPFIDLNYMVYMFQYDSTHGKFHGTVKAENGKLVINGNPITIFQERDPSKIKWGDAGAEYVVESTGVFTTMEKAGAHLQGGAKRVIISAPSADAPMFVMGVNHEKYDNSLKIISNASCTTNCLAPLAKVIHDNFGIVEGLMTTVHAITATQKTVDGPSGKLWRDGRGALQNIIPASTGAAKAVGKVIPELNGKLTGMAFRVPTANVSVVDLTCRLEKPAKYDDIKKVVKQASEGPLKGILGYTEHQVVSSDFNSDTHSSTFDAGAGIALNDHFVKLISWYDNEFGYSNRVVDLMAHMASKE

[3] = target: T2, Polyadenylate-binding protein 1 (Homo sapiens, UniProt P11940); assay: PABP1 MLLE–PAM2 binding inhibitor potency, dose response, biochemical, fluorescence polarization, FITC-PAM2 peptide (AID 602259); type: functional; conditions: read-out: IC50_Mean
Beta-galactosidase = Beta-galactosidase (Escherichia coli, UniProt Q8VNN2); assay: beta-galactosidase enzyme inhibitors and activators, dose response, artefact control for CCR6 antagonist project, biochemical, E. coli enzyme, set 3 (AID 504712); type: functional
Sequence of Beta-galactosidase (Q8VNN2 whole entry): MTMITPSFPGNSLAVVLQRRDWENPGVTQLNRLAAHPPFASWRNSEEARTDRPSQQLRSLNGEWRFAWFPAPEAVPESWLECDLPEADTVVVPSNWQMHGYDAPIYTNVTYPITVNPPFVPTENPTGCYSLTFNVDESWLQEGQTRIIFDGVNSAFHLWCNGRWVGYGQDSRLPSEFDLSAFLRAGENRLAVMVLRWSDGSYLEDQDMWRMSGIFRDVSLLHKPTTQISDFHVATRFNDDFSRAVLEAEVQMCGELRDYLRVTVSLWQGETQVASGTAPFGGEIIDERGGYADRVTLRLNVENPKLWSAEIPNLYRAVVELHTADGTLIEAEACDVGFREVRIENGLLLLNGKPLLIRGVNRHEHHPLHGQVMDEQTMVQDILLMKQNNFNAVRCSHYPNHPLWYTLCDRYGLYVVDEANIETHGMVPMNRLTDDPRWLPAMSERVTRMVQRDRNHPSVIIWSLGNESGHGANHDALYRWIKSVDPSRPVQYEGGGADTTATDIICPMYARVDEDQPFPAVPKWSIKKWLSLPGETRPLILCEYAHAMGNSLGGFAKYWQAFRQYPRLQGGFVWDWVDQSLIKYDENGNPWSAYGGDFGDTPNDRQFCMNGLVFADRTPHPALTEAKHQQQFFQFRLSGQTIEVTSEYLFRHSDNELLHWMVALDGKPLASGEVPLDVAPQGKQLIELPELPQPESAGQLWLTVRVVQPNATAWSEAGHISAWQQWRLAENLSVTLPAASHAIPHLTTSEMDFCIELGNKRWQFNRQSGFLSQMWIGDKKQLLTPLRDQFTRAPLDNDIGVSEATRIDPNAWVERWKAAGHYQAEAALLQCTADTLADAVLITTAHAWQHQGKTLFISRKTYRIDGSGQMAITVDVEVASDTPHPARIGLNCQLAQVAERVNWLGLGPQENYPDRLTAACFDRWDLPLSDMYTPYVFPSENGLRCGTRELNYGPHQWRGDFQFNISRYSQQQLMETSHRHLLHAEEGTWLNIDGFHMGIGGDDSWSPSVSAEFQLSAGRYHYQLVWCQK

[4] = target: T2, Polyadenylate-binding protein 1; assay: PABP1 MLLE–PAM2 interaction inhibitors, dose response, miRNA deadenylation inhibitor project, biochemical, fluorescence polarization, Cy5-PAM2 peptide, secondary (AID 602260); type: functional; conditions: read-out: IC50_Mean
[5] = HEp-2 cell cytotoxicity, dose response, cytotoxicity control for RSV inhibitor project, HTS (AID 2410); type: functional; conditions: human respiratory syncytial virus
Estrogen receptor = target: T3, Estrogen receptor (Homo sapiens, UniProt P03372);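 also: potency for inhibiting coactivator peptide recruitment to the receptor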
T3 sequence (P03372 whole entry): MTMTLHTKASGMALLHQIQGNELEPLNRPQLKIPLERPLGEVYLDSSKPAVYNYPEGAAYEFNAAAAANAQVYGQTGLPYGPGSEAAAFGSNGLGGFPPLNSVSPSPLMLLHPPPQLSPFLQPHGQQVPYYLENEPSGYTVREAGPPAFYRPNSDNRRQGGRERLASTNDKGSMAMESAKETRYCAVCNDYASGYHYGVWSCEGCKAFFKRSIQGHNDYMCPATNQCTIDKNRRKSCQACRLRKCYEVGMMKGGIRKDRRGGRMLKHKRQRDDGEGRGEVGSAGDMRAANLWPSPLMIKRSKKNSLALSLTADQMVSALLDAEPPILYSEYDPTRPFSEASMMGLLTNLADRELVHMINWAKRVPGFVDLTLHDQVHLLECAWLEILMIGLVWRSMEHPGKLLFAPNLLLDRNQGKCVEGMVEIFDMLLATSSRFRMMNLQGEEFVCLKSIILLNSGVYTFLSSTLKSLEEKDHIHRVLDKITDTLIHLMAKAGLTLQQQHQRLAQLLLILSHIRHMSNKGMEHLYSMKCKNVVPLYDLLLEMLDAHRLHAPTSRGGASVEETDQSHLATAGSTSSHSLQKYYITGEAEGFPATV

[6] = cytotoxicity toward NIH3T3 fibroblasts, dose response, counter-screen, cell-based, ATP luminescence, mouse fibroblasts (AID 2010); type: functional;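 also: cells exposed to compound for about 90 hours before reading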
[7] = growth suppression of beta-catenin-knockout colon cells, dose response, cell-based, HCT116, human colon tumor (AID 1045); type: functional;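 also: HCT116 colon tumor cells with beta catenin knocked out; cells exposed to compound for 60 hours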
Bcl-2-related protein A1 = target: T4, Bcl-2-related protein A1 (Mus musculus, UniProt Q07440); type: functional;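 also: confirmatory dose–response counterscreen on Bfl-1, used to check hits from a UBC13 polyubiquitin inhibitor campaign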
T4 sequence (Q07440 whole entry): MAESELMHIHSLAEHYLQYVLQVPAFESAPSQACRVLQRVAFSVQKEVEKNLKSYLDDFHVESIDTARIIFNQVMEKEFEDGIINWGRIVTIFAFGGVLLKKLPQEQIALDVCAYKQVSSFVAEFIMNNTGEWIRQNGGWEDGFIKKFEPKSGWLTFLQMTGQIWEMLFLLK

[8] = growth suppression of PTEN-null colon cells, dose response, cell-based, HCT116 PTEN knockout (AID 1047); type: functional;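 also: HCT116 colon tumor cells with PTEN knocked out; cells exposed to compound for 60 hours before readout; potency for loss of cell viability measured by luminescence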
[9] = target: T5, Short transient receptor potential channel 4 (Mus musculus, UniProt Q9QUQ5); assay: mouse TRPC4 channel activators, dose response, cell-based, HEK293 TRPC4/mu-opioid, Fluo-4 calcium (AID 434937); type: functional
T5 sequence (Q9QUQ5 whole entry): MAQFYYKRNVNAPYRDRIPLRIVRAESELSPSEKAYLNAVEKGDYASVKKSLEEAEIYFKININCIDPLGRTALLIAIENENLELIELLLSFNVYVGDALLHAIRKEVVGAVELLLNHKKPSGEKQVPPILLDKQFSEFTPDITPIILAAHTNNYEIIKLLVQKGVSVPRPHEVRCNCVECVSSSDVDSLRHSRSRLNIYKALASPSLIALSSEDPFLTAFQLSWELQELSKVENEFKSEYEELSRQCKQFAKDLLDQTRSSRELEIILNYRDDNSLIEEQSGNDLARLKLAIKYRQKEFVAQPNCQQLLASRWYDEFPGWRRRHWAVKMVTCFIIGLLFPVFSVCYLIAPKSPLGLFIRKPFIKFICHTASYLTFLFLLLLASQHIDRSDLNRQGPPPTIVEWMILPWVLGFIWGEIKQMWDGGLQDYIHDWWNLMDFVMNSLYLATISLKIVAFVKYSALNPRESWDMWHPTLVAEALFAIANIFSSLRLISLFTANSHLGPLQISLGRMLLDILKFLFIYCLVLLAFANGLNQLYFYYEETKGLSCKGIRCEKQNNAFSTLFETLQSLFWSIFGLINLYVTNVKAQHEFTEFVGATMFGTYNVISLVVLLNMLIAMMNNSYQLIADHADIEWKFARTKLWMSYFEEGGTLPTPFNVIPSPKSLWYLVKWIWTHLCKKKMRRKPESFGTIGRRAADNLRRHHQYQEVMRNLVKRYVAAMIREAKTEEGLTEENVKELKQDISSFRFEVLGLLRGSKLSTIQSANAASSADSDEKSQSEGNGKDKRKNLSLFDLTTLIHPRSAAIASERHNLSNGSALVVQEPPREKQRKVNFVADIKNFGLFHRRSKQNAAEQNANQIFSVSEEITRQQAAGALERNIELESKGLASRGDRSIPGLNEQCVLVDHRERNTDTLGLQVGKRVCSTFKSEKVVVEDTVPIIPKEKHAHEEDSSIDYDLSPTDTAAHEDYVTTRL

[10] = target: T6, Ubiquitin-conjugating enzyme E2 N (Homo sapiens, UniProt P61088); type: functional
T6 sequence (P61088 whole entry): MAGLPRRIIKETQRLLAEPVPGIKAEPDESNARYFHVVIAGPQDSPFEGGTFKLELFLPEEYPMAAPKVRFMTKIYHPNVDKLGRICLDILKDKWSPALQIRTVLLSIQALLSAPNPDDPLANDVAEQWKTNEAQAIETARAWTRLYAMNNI

[11] = inhibitors of intracellular T. cruzi replication, confirmation, NIH3T3 host cells, beta-gal luminescence (AID 2044); type: functional, cell-based;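 also: intracellular parasites grown in NIH/3T3 mouse fibroblasts as host cells; luminescent beta-galactosidase reporter signal from transgenic T. cruzi replicating inside host cells; inhibitors lower the luminescence signal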
[12] = target: T6, Ubiquitin-conjugating enzyme E2 N; type: functional; remark: listed apart in the source
[13] = target: T7, Voltage-gated N-type calcium channel alpha-1B subunit/Amyloid beta A4 precursor protein-binding family A member 1 (Homo sapiens, UniProt Q00975+Q02410); type: protein assay
T7 sequence (Q00975 whole entry): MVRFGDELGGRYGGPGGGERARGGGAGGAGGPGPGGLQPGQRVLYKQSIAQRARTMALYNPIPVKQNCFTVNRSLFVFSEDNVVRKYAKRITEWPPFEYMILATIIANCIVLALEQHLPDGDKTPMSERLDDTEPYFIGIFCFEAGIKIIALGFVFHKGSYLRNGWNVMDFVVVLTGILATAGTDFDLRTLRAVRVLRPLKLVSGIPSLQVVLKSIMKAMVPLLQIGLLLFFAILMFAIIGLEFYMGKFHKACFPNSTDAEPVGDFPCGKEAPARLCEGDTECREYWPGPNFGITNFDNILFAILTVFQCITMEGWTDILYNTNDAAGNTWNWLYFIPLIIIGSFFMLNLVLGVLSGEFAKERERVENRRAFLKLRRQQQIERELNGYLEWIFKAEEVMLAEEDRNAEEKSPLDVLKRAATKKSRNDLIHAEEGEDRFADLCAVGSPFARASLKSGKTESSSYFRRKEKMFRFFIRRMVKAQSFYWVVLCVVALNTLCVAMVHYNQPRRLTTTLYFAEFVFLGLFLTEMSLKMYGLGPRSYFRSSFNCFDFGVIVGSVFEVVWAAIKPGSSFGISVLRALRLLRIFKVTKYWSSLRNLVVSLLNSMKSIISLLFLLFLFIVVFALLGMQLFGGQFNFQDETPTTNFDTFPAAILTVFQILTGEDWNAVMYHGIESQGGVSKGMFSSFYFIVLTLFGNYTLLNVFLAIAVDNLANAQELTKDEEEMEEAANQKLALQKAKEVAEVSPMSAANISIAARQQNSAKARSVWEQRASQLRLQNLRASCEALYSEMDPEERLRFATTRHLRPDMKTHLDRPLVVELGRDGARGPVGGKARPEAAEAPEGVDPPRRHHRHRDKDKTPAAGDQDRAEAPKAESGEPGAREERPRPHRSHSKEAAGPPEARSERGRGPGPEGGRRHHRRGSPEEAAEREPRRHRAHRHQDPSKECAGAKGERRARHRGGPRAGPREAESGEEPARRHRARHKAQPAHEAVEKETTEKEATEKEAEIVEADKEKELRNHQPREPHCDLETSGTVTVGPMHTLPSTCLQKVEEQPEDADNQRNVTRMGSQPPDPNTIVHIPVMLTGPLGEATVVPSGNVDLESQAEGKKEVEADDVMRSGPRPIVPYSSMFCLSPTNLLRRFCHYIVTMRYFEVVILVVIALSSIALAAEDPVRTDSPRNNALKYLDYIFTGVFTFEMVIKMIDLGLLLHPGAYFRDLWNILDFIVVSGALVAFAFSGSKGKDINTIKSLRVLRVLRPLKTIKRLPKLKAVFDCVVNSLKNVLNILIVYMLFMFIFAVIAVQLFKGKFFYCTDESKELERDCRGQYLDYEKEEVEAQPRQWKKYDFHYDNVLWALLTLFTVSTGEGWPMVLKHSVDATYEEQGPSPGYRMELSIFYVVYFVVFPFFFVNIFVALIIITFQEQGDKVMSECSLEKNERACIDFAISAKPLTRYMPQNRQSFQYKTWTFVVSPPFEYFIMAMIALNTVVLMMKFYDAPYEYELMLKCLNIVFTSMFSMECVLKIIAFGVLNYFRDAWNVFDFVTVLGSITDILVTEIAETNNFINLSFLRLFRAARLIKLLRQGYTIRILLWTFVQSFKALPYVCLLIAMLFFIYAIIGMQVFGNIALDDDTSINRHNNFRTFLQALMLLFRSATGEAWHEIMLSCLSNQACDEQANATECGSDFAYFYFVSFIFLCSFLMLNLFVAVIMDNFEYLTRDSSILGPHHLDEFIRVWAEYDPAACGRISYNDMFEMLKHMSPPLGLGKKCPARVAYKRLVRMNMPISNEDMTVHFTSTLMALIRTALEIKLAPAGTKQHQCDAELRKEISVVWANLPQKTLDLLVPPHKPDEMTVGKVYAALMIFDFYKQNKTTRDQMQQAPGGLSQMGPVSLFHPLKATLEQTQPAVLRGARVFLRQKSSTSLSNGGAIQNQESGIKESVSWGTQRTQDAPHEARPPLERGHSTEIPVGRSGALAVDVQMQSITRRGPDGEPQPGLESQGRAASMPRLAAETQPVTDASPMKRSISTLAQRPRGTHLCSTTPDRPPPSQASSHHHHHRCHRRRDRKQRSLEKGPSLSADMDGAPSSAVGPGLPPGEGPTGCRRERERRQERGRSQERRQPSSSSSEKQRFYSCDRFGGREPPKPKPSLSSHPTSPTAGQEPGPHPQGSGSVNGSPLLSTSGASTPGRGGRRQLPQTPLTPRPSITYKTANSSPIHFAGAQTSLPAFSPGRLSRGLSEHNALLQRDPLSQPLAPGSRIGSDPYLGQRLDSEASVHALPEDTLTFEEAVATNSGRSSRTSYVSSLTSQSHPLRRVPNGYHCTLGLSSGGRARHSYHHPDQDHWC
T7 sequence (Q02410 whole entry): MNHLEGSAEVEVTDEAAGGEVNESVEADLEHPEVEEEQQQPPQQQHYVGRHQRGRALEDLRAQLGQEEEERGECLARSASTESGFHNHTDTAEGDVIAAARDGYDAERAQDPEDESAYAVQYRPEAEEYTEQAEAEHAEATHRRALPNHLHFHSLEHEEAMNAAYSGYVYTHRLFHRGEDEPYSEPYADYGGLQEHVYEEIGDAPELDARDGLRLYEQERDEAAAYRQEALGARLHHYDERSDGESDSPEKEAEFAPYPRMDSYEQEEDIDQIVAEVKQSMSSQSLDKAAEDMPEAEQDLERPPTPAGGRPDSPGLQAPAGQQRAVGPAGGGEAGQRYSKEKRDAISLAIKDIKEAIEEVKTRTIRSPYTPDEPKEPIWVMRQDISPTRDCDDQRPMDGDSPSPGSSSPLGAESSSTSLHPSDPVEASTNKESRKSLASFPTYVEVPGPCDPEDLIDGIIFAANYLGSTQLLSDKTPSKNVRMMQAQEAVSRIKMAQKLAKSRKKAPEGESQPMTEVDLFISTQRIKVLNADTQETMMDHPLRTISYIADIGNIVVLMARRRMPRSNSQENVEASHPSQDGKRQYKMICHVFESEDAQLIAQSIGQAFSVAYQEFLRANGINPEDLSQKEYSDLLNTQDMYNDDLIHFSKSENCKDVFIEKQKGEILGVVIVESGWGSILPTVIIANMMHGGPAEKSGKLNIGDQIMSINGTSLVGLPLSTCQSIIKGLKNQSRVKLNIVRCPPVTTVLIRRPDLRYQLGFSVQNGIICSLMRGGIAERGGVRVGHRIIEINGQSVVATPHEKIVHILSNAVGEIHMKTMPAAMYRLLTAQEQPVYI

[14] = target: T7, Voltage-gated N-type calcium channel alpha-1B subunit/Amyloid beta A4 precursor protein-binding family A member 1; type: protein assay; remark: listed apart in the source
[15] = HepG2 cell cytotoxicity, dose response, cytotoxicity control for Shn3 inhibitor project, CellTiter-Glo, cherry-picked (AID 624134); type: functional, cell-based
[16] = target: DNA dC->dU-editing enzyme APOBEC-3G (Homo sapiens, UniProt Q9HC16); assay: Dose Response confirmation of small molecule APOBEC3G DNA Deaminase Inhibitors via a fluorescence-based single-stranded DNA deaminase assay. [Related pubchem assays (depositor defined):AID493012, AID493028]; type: functional
[17] = target: Glucose-6-phosphate 1-dehydrogenase (Homo sapiens, UniProt P11413); assay: human G6PD enzyme inhibitors, dose response, selectivity assay for P. falciparum G6PD inhibitor project, biochemical, fluorescence (AID 504792); type: functional
[18] = control 3'UTR Renilla luciferase suppression, dose response, counter-screen for Shn3 inhibitor project, cell-based, Clone20-Shn3RL, cherry-picked (AID 624133); type: functional
[19] = Shn3 3'UTR reporter inhibitors, dose response, cell-based, Clone20 osteoblasts, firefly luciferase, cherry-picked (AID 624132); type: functional;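 also: firefly luciferase luminescence from reporter carrying the Shn3 3'UTR in osteoblasts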
Cytochrome P450 3A4 = Cytochrome P450 3A4 (Homo sapiens, UniProt P08684); conditions: Potency;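 also: confirmatory qHTS run detecting inhibitors and substrates of CYP3A4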

Sequence of Cytochrome P450 2C9 (P11712 whole entry): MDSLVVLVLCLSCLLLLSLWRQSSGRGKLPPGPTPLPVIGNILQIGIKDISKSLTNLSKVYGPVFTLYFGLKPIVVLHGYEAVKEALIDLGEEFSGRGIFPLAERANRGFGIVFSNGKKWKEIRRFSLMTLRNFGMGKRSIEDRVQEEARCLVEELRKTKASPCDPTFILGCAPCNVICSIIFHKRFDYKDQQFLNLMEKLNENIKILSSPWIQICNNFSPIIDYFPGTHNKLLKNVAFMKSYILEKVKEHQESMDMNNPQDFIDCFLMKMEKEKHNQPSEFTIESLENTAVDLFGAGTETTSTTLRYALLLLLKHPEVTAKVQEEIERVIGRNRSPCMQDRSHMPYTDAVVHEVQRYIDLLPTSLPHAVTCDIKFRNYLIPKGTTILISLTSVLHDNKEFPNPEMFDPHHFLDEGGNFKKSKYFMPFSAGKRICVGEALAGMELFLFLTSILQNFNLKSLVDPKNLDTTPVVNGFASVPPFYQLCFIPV

COc1ccc(/C=C/C2=CC3(C)CC2(C)C(c2ccc(OC)cc2)CC3=O)cc1 (stereo not given)
AC50 (Cytochrome P450 2C9): 7.94 µM (inconclusive)

O=C1C2CCCCC2C(=O)N1c1nc(CCc2ccccc2)n[nH]1 (stereo not given)
IC50 [1]: > 100 µM (inactive) | IC50 [2]: > 100 µM (not active)

CCCCn1c(N)c(C(=S)NC(=O)CC(C)(C)C)c(=O)n(C)c1=O
IC50 [3]: > 66 µM (inactive) | IC50 (Beta-galactosidase): > 66.6 µM (inactive) | IC50 [4]: > 66 µM (inactive)

O=S(=O)(c1ccccc1F)N1CCC(c2nc(O)c3nnn(Cc4ccc5c(c4)OCCO5)c3n2)CC1
CC50 [5]: > 50 µM (active) | IC50 (cells): 45.3 µM (active)

Cc1ccccc1Nc1nc(N)nc(CSc2nc3ccccc3c(=O)n2C)n1
IC50 (Estrogen receptor): > 50 µM (not active)

COc1ccc(-c2cc(C#N)nc(N3CCNCC3)n2)cc1
EC50 [6]: > 60 µM (not active) | EC50 [7]: 9.93 µM (active) | IC50 (Bcl-2-related protein A1): > 20 µM (inactive) | EC50 [8]: 15.2 µM (active) | EC50 [9]: 1.88 µM (active) | IC50 [10]: 15.9 µM (active) | EC50 [11]: 3.69 µM (active) | IC50 [12]: 15.5 µM (active)

CC(C)CC(C(=O)NC(C)(C)C)N(Cc1ccccc1Cl)C(=O)c1snc(C(N)=O)c1N (stereo not given)
IC50 (Bcl-2-related protein A1): > 20 µM (inactive) | IC50 [10]: 12.5 µM (active) | IC50 [12]: 14.5 µM (active)

CCOC(=O)N1CCN(C(=O)CCN2C(=O)/C(=C\c3cccc(OC)c3)SC2=S)CC1
IC50 [13]: 28.4 µM (active) | IC50 [14]: > 50 µM (inactive)

CSc1ccc(S(=O)(=O)Nc2cccc(F)c2)cc1
IC50 (Estrogen receptor): 23.7 µM (active)

NNC(=O)c1cc(-c2ccc(F)cc2F)[nH]n1
IC50 [1]: 0.12 µM (active) | IC50 [2]: > 10 µM (inconclusive)

N#C/C(=C\c1ccc(OCCN2CCOCC2)cc1)C(=O)Nc1ccc(S(N)(=O)=O)cc1
IC50 [13]: 7.74 µM (active) | IC50 [14]: > 50 µM (inactive)

Cc1ccc(-c2nc3cccnc3s2)cc1NS(=O)(=O)c1cccs1
CC50 [5]: 20.4 µM (active) | IC50 (cells): 8.63 µM (active)

CCOC(=O)C1CCCN(C(=O)Cn2sc3nc(C)cc(C)c3c2=O)C1 (stereo not given)
EC50 [7]: 21.6 µM (active) | IC50 [13]: 12.6 µM (active) | AC50 [15]: > 70 µM (inactive) | EC50 [8]: 25.9 µM (active) | IC50 [16]: 6.17 µM (active) | IC50 [14]: > 50 µM (inactive) | IC50 [17]: 47.1 µM (inactive) | AC50 [18]: 7.5 µM (active) | AC50 [19]: 12.5 µM (active)

COC(=O)NC(/C(C(=O)OC)=C(\C)NCc1ccccc1)c1ccc2ccccc2c1 (stereo not given)
AC50 (Cytochrome P450 3A4): 3.98 µM (inconclusive) | AC50 (Cytochrome P450 2C9): 1 µM (inconclusive)

COc1cc(-c2nnc(SCc3c(F)cccc3Cl)o2)cc(OC)c1OC
CC50 [5]: 29.9 µM (active) | IC50 (cells): 9.1 µM (active)

Cc1c(CC(=O)N2CCN(C(=O)C3COc4ccccc4O3)CC2)c(=O)oc2cc(O)cc(O)c12 (stereo not given)
IC50 (cells): 3.62 µM (active)

COc1ccccc1NS(=O)(=O)c1ccc(OC)c2ncccc12
IC50 [1]: > 100 µM (inactive) | IC50 [2]: > 100 µM (not active)

CCCOc1ccc(CN(CCC#N)C(=S)NC(=O)c2ccccc2)cc1
IC50 (Beta-galactosidase): > 66.6 µM (inactive)

CCOC(=O)c1cc(-c2cccc(C(F)(F)F)c2)n[nH]1
IC50 [1]: > 100 µM (inactive) | IC50 [2]: > 100 µM (not active)

NCCC[C@@H](CC(=O)N[C@@H]1CCNC[C@H]1C(=O)N[C@H](CC(=O)N[C@@H](CCC(=O)O)CC(=O)O)Cc1c[nH]c2ccccc12)NC(=O)C[C@H](CO)NC(=O)[C@@H]1CNCC[C@H]1N
AC50 (Cytochrome P450 2C9): 39.8 µM (inconclusive)

CCOc1cc(C)ccc1S(=O)(=O)Nc1cccnc1
IC50 [1]: > 100 µM (inactive) | IC50 [2]: > 100 µM (not active)

COc1ccc(NS(=O)(=O)c2cc(C(=O)N3CCC3)ccc2C)cc1
IC50 (Bcl-2-related protein A1): > 20 µM (inactive) | IC50 [10]: > 20 µM (inactive) | IC50 [12]: 19.8 µM (active)

C#CCOCCOCCOCCNc1nc(N2CCN(C(=O)C([C@@H](C)O)n3cc([C@@H](N)CCCCN)nn3)CC2)nc(N2CCN(C(=O)[C@H](CCCN=C(N)N)n3cc(C(N)[C@@H](C)CC)nn3)CC2)n1 (stereo not given in full)
IC50 (Bcl-2-related protein A1): > 20 µM (inactive) | IC50 [10]: 7.99 µM (active) | IC50 [12]: 12.1 µM (active)

O=[N+]([O-])c1ccc(N/N=C/c2cccc(O)c2O)cc1
IC50 (Beta-galactosidase): > 66.6 µM (inactive)

O=c1cc(-c2ccccc2O)oc2ccc3ccccc3c12
AC50 (Cytochrome P450 3A4): 31.6 µM (inconclusive) | AC50 (Cytochrome P450 2C9): 31.6 µM (inconclusive)
